For 59 compounds, RP-LC retention time results are on record in the METLIN SMRT retention time set (Domingo-Almenara et al. 2019).

This data set in a line: gradient 5% acetonitrile 3 min, to 50% in 2 min, to 85% in 15 min, held 3 min, 100 µL/min. Conditions: column: Zorbax Extend-C18 2.1 x 50 mm; eluents: water / acetonitrile, 0.1% formic acid. The essentials:
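In both positive and negative ionization mode, a quadrupole time-of-flight mass spectrometer coupled to HPLC analyzed pure standards run in mixtures of ~100 molecules. The Zorbax Extend-C18 column (2.1 × 50 mm, 1.8 μm) was operated at 100 μL/min with water and acetonitrile, each containing 0.1% formic acid. The dead volume was 40 μL and the dwell volume 900 μL. Retention time came from adduct peaks that were computationally picked and individually inspected by hand.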
In turn, `O=C(Nc1ccc(-c2nnc3n2CCCC3)cc1)C1CCCC1` gave an RP-LC retention time of 648 s.

Regarding `Cc1c(CCC(=O)N2CCC3(O)CCCCC3C2)c(=O)oc2cc(O)ccc12` (centres undefined), the RP-LC retention time worked out at 652 s.

`Cc1ccc(NC(=O)N2CCC3(CC2)NC(=O)c2cc(Cl)ccc2N3C)cc1C` displayed an RP-LC retention time of 904 s.

In turn, `Cc1cc(C)cc(-c2nc(C3CC(=O)N(c4ccc(Cl)cc4)C3)no2)c1` (centres undefined) displayed an RP-LC retention time of 1200 s.

`NC(=O)c1c(NC(=O)CSc2ncnc3sc4c(c23)CCC4)sc2c1CCC2` came in with an RP-LC retention time of 1100 s.

`COC(=O)c1nnn(-c2cc(C)ccc2OC)c1C(=O)OC` came in with an RP-LC retention time of 862 s.

`COc1cccc(NS(=O)(=O)c2cc3c(s2)CCN(C(=O)C2CCC2)C3)c1`: the RP-LC retention time worked out at 851 s.

In the case of `COc1ccc(C(=O)c2c(C)n(CCN3CCOCC3)c3ccccc23)cc1`, the RP-LC retention time was found to be 780 s.

With `CCC(Sc1nncn1C)C(=O)Nc1nnc(-c2cccc([N+](=O)[O-])c2)s1` (centres undefined), the RP-LC retention time amounted to 689 s.

`O=C(C1=NN(Cc2cccc(F)c2)c2cc(Cl)ccc2S1(=O)=O)N1CCOCC1` had an RP-LC retention time of 904 s.

As for `CCc1ccc(NC(=O)Cn2c(=O)c(CCC(=O)NCC(C)C)nc3ccccc32)cc1`, the RP-LC retention time was 878 s.

Take `CC(C)n1nc(-c2nc(-c3cccc(Cl)c3)no2)ccc1=O`: the RP-LC retention time was 1150 s.

`Cc1cc(C(=O)NCc2ccccc2F)nc2cc(-c3cccs3)nn12`: the RP-LC retention time is 1120 s.

With `O=C(c1c2c(nn1C1CCS(=O)(=O)C1)CCC2)N1CCC(Cc2ccccc2)CC1` (centres undefined), the RP-LC retention time was 849 s.

`CC1CCCN(C(=O)c2cn(-c3cc(-c4nc(C(C)(C)C)no4)ccn3)cn2)C1` (centres undefined) yielded an RP-LC retention time of 1040 s.

For `O=C(Nc1ccc2c(c1)Cc1ccccc1-2)c1csc(Nc2ncccn2)n1`, the RP-LC retention time is 972 s.

Compound `CCNc1ncnc2sc3c(c12)CCN(C(=O)c1ccncc1)C3` gave an RP-LC retention time of 591 s.

Consider `Cc1ccc(NC(=O)C2CCCN(S(=O)(=O)c3cn(C(C)C)cn3)C2)cc1Cl` (centres undefined), for which the RP-LC retention time was found to be 879 s.

As to `COc1ccc(NC(=O)Cn2cnc3nc4c(cc3c2=O)CCCC4)cc1`, the RP-LC retention time is 695 s.

For `O=C(NCCc1c[nH]c2ccc(Cl)cc12)c1cccc(Cn2c(=O)c3cccn3c3cccnc32)c1`, the RP-LC retention time was 981 s.

As for `CCCn1ccc2sc(C)c(C(=O)NCc3ccccc3OC)c2c1=O`, the RP-LC retention time was found to be 896 s.

Compound `CC(C)n1cnc(S(=O)(=O)N2CCC(C(=O)Nc3ccc(OC(F)(F)F)cc3)CC2)c1` displayed an RP-LC retention time of 888 s.

In the case of `Cc1cc(C)n(Cc2nc(-c3ccc(NC(=O)C(C)(C)C)cc3)oc2C)n1`, the RP-LC retention time amounted to 904 s.

In turn, `CCn1ncc(NC(=O)COc2cccc(C)c2C)c(N2CCCCC2)c1=O` displayed an RP-LC retention time of 1230 s.

As for `COc1ccc(NC(=O)C2CCCN(c3nccnc3Sc3ccccc3)C2)cc1F` (centres undefined), the RP-LC retention time worked out at 1050 s.

Consider `COCCOCC(=O)N1CCC(c2noc(C3CC3)n2)C1` (centres undefined), for which the RP-LC retention time was determined as 619 s.

As for `Cc1occc1C(=O)NC1CCc2nn(CC3CC3)c(=O)n2CC1` (centres undefined), the RP-LC retention time amounted to 636 s.

In the case of `CCCCn1cc(S(=O)(=O)N2CCN(c3ccccc3C)CC2)c2cccnc21`, the RP-LC retention time was 1280 s.

On to `COc1ccc(NC(=O)Cn2ccnc2-c2ccnc(N3CCCC3)c2)cc1OC`, for which the RP-LC retention time was found to be 573 s.

`Cc1cc(N2CCOCC2)n2nc(CN3CCc4ccccc4C3)nc2n1` yielded an RP-LC retention time of 590 s.

`Cc1cc(Cl)ccc1NC(=O)CCc1c(C)nn(-c2cc(N(C)C)ncn2)c1C` registered an RP-LC retention time of 862 s.

For the compound `CCn1ccc(C(=O)N2CC(Oc3cccc(-c4nc(C)no4)c3)C2)n1`, the RP-LC retention time turned out to be 808 s.

Regarding `CS(=O)(=O)N1CCN(C(=O)CCC2CCN(c3cc(NC4CC4)ncn3)CC2)CC1`, the RP-LC retention time worked out at 606 s.

The compound `Cc1ccc(-c2cc(C(=O)NC3CCCCC3)c(C)[nH]2)cc1` yielded an RP-LC retention time of 958 s.

With `O=C(c1ccc(F)c(Cl)c1)N1CCN(C(=O)c2nnn3c2COC(c2ccccc2)C3)CC1` (centres undefined), the RP-LC retention time turned out to be 913 s.

As for `COc1cc(C)c(Sc2cnc(NC(=O)c3ccc(CNC(C)C(C)(C)C)cc3)s2)cc1C(=O)N1CCN(C(C)=O)CC1` (centres undefined), the RP-LC retention time came out at 762 s.

Compound `N#Cc1cccc(S(=O)(=O)N2CCc3nc(-c4ccc(F)cc4)ncc3C2)c1` gave an RP-LC retention time of 1030 s.

As for `Cc1noc([C@@H]2CN(C(=O)Cc3c(C)noc3C)C[C@H]2C(N)=O)n1`, the RP-LC retention time is 593 s.

Compound `Cc1cc(Cl)ccc1S(=O)(=O)NCC1CN(C)CC12CCCCC2` (centres undefined) had an RP-LC retention time of 713 s.

Compound `O=C(NC1CCCC1)N1c2ccccc2CC1c1nc(C2CC2)no1` (centres undefined) registered an RP-LC retention time of 972 s.

In turn, `CCC(C)NS(=O)(=O)c1cc(-c2nnc(-c3ccccc3)o2)ccc1F` (centres undefined) had an RP-LC retention time of 966 s.

Turning to `CC(CCc1ccccc1)NC(=O)Cc1nnc(-c2ccccn2)o1` (centres undefined), the RP-LC retention time amounted to 744 s.

The compound `Cc1cccc(-c2nnc(-c3ccc(Cl)c(S(=O)(=O)N4CCCCC4)c3)o2)c1` returned an RP-LC retention time of 1250 s.

In turn, `COCCN1C(=O)CCC2(C(=O)Nc3cc(OC)cc(OC)c3)CCCC=C12` (centres undefined) returned an RP-LC retention time of 763 s.

`Cn1nccc1-c1cccc(-c2noc(-c3cc(F)ccc3Cl)n2)c1` had an RP-LC retention time of 1190 s.

With `Cc1cc(=O)n(CC(=O)N2CCc3ccccc32)c(N)n1`, the RP-LC retention time was determined as 608 s.

The compound `COc1ccc(Cl)cc1NC(=O)NCC(c1cccnc1)c1cn(C)c2ccccc12` (centres undefined) showed an RP-LC retention time of 785 s.

Compound `CCC(C)NC(=O)N1CCCN(C2=NS(=O)(=O)C(c3cccc(Cl)c3)=C2C)CC1` (centres undefined) displayed an RP-LC retention time of 837 s.

`O=C(c1cccnc1)C1Cc2ccccc2C1=O` (centres undefined) registered an RP-LC retention time of 884 s.

In turn, `O=C(NC1CCCCCC1)c1cccc(-c2nccnc2N2CCCC2)c1` returned an RP-LC retention time of 1000 s.

Take `COc1ccc(-c2noc(Cn3ccnc3)n2)cc1OC`: the RP-LC retention time worked out at 586 s.

`CCC(=O)N1CCc2cc(N3CC(C(=O)NC4CCCC4)CC3=O)ccc21` (centres undefined) displayed an RP-LC retention time of 686 s.

Take `COCCNC(=O)c1cc2c(n(-c3ccc(C(F)(F)F)cc3)c1=O)CCCC2=O`: the RP-LC retention time stood at 786 s.

`OC[C@H]1O[C@@H](n2cnc3c(NC4CCCCC4)ncnc32)[C@H](O)[C@@H]1O` yielded an RP-LC retention time of 656 s.

Compound `CCOC(=O)c1[nH]c(C)c(C(=O)C(C)N(CCOC)C(=O)c2ccccc2Cl)c1C` (centres undefined) returned an RP-LC retention time of 820 s.

Regarding `COc1ccc(OC)c(NC(=O)NCCc2nc3cccnc3n2C2CCCC2)c1`, the RP-LC retention time came out at 706 s.

For `O=C(NCC1CCN(C(=O)Nc2ccc(F)cc2)CC1)c1ccsc1`, the RP-LC retention time came to 682 s.

For `CC(=O)Nc1nnc(SCc2nnc(-c3ccc4c(c3)OCO4)o2)s1`, the RP-LC retention time was found to be 678 s.

`CCC(=O)c1cn(CC(=O)NCc2cc3c(cc2OC)OCCCO3)c2ccccc12` had an RP-LC retention time of 837 s.
